Reference: patent US20250082643A1, “COMBINATION THERAPY FOR PIK3CA-ASSOCIATED DISEASES OR DISORDERS” (Faeth Therapeutics, Inc., priority 2021, published 2025)

Assays:
CYP3A4 = CYP3A4 (Homo sapiens, UniProt P08684); settings: normalized for liver content; cited from earlier work
[1] = test system: solid tumors with PIK3CA mutations with or without PTEN loss; settings: human, in vivo
Description: The primary objective of the study is to evaluate the safety, feasibility, and pharmacokinetic impact of intrasubject modulated dosing for serabelisib when co-administered with a study ISD in a pilot cohort of subjects with solid tumors with PIK3CA mutations with or without PTEN loss. […] For the expansion cohort, nab-paclitaxel will also be administered with serabelisib when co-administered with a study ISD. […] FIG. 4 depicts a representation of the study cohorts of the clinical trial using serabelisib in combination with an insulin suppressing diet and nab-paclitaxel in subjects with cancer.
Cohort 1a (Dose Modification): The primary objective of the study is to evaluate the safety, compliance, and pharmacokinetic (PK) impact of intrasubject modulated dosing for serabelisib in combination with a Study ISD in a pilot cohort. […] Endpoints include: ORR, defined as the proportion of subjects who have best overall response of either CR or PR, as determined by each site; Progression free survival (PFS), defined as the time from date of first dose of Study Drug (Visit 1) to the date of first evidence of disease progression or death from any cause (whichever occurs first); Overall survival (OS) and landmark survival; Duration of response (DoR); and Disease control rate (DCR; CR+PR+stable disease [SD]). […]

[2] = molecular target: breast cancer resistance protein (BCRP) (Homo sapiens, UniProt Q9UNQ0); settings: cited from earlier work
[3] = cited from earlier work
[4] = molecular target: mammalian target of rapamycin (mTOR) (Homo sapiens, UniProt P42345); settings: relative to PI3Kα
[5] = molecular target: organic cation transporter (OCT) 1 (Homo sapiens, UniProt O15245); settings: cited from earlier work
CYP2C19 = CYP2C19 (Homo sapiens, UniProt P33261); settings: cited from earlier work
[6] = test system: downstream signaling of PI3K; settings: cell lines with hyperactivation of the pathway; cited from earlier work
CYP2C8 = CYP2C8 (Homo sapiens, UniProt P10632); settings: cited from earlier work
a range of cell lines = settings: cited from earlier work
CYP1A2 [7] = molecular target: CYP1A2 (Homo sapiens, UniProt P05177); settings: cited from earlier work
CYP2C9 = CYP2C9 (Homo sapiens, UniProt P11712); settings: cited from earlier work
CYP3A4/5 [8] = settings: cited from earlier work
solid tumors = settings: cited from earlier work
[9] = test system: other class I PI3K isoforms; settings: relative to PI3Kα
CYP2B6 [10] = molecular target: CYP2B6 (Homo sapiens, UniProt P20813); settings: cited from earlier work
CYP3A4/5 [11] = settings: cited from earlier work; remark: listed apart in the source
PI3Kα = PI3Kα (Homo sapiens, UniProt P42336); settings: biochemical assays; read-out: half maximal inhibitory concentration (IC50); cited from earlier work
OCT2 = OCT2 (Homo sapiens, UniProt O15244); settings: cited from earlier work
CYP2B6 [12] = settings: cited from earlier work
[13] = test system: renal cell carcinoma xenograft with mutations in the PTEN gene; settings: cited from earlier work
[14] = in vitro metabolism, across test species; cited from earlier work
CYP2D6 = CYP2D6 (Homo sapiens, UniProt P10635); settings: cited from earlier work
[15] = test system: human breast cancer cells harboring mutations in the PIK3CA gene; settings: mouse xenograft, PIK3CA-mutated human breast cancer cells; cited from earlier work
CYP1A2 [16] = settings: cited from earlier work
[17] = oral administration, various animal species

Sequence of PI3Kα (P42336 whole entry): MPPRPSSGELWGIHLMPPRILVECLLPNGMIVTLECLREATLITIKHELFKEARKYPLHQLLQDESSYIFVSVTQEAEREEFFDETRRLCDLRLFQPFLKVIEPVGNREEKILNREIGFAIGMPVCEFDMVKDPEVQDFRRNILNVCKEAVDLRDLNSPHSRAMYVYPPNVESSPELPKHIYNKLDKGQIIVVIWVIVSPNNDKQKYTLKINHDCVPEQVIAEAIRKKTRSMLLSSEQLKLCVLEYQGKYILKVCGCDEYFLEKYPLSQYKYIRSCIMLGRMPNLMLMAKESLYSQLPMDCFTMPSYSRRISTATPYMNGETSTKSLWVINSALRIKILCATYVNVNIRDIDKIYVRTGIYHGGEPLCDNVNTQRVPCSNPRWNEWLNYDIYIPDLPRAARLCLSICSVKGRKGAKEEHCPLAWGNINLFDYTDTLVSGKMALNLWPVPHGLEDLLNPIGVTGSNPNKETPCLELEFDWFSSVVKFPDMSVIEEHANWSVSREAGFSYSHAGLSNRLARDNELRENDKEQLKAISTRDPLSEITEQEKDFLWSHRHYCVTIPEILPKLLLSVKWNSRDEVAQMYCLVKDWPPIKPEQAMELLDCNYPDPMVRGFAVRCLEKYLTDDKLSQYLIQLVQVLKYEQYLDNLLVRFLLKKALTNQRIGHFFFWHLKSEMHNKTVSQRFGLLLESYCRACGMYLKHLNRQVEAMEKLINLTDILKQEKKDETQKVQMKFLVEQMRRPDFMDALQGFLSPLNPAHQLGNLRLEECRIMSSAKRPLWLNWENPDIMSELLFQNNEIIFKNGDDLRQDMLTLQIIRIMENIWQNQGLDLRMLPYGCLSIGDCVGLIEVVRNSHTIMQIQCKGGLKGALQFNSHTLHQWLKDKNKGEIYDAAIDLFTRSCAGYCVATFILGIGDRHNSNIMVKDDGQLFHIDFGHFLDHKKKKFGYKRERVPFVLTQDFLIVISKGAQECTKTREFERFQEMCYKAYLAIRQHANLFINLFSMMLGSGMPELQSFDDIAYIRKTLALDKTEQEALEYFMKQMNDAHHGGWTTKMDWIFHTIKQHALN
Sequence of PI3Kα (P27986 whole entry partner): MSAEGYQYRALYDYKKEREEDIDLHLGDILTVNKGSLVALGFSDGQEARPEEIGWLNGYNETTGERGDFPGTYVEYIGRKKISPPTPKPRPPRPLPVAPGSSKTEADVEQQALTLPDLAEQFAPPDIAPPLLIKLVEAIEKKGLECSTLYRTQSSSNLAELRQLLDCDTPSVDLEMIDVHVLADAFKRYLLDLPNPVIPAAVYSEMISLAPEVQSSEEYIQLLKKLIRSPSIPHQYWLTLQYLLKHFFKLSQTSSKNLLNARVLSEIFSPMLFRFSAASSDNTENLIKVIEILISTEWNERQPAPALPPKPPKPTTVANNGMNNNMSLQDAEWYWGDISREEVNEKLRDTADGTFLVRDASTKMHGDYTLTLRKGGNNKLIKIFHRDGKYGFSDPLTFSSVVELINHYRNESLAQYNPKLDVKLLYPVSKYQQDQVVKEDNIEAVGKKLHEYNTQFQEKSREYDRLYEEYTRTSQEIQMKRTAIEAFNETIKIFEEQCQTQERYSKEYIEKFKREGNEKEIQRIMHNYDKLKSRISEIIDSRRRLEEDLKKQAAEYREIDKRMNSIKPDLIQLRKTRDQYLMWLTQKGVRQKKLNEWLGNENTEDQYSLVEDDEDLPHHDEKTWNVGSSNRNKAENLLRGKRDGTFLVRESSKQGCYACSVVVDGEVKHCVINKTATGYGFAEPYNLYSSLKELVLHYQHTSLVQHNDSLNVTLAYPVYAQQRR
Sequence of OCT2 (O15244 whole entry): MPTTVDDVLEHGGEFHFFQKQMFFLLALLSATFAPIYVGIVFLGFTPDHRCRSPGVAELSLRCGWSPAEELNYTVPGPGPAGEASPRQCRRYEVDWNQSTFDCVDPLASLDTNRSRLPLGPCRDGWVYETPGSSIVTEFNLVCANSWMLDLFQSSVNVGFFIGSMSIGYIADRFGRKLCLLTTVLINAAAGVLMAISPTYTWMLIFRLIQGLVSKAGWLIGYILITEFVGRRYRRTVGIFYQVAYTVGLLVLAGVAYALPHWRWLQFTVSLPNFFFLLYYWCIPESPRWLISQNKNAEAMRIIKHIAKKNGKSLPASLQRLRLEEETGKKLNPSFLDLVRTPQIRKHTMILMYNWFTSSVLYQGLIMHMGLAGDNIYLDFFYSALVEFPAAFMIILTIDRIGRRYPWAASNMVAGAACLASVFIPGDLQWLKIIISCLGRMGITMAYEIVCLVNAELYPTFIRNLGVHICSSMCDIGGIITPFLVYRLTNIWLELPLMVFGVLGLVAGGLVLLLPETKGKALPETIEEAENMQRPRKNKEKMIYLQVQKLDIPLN
Sequence of CYP1A2 (Homo sapiens, UniProt P05177) (P05177 whole entry): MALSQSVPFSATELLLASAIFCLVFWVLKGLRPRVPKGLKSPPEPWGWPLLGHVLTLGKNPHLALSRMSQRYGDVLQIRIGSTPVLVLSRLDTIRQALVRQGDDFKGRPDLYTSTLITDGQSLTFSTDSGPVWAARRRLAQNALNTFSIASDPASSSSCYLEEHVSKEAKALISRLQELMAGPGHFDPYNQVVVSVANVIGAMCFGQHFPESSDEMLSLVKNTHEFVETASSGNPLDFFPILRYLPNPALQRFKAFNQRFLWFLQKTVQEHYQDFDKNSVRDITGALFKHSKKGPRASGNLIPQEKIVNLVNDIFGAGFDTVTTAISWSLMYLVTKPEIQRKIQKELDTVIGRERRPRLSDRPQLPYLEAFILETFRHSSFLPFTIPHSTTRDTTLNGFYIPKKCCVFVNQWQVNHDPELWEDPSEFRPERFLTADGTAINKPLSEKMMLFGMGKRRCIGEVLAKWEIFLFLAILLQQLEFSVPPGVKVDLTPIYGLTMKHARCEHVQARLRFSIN
Sequence of CYP2C8 (P10632 whole entry): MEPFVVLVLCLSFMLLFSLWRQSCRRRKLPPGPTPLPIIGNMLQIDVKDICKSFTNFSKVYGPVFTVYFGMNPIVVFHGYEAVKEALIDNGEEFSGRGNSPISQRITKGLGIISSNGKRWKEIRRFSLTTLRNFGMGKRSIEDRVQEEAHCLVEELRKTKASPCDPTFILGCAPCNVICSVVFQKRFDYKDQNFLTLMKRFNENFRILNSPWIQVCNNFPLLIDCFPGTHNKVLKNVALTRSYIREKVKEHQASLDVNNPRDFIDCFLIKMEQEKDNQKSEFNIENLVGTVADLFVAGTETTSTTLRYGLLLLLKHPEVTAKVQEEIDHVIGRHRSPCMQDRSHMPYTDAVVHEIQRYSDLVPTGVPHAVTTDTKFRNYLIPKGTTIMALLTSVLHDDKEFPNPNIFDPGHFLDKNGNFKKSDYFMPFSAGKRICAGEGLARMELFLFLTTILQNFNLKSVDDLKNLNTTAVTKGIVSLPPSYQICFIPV
Sequence of CYP3A4 (P08684 whole entry): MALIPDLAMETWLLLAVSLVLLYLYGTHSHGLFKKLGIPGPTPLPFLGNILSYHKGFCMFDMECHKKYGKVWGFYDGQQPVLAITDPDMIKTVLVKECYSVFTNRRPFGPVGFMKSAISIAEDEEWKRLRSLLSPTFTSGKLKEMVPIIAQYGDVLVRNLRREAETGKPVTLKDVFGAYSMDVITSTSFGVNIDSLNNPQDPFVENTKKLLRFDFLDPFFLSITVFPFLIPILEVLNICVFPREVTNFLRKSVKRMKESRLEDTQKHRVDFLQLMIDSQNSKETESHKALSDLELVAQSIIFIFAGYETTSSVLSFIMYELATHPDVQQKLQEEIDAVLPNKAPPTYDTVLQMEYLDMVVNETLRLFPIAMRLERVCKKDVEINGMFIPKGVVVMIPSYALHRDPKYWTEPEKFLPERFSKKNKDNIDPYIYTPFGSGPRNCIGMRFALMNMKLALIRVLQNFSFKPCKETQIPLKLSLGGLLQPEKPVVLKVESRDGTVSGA
Sequence of CYP2B6 (Homo sapiens, UniProt P20813) (P20813 whole entry): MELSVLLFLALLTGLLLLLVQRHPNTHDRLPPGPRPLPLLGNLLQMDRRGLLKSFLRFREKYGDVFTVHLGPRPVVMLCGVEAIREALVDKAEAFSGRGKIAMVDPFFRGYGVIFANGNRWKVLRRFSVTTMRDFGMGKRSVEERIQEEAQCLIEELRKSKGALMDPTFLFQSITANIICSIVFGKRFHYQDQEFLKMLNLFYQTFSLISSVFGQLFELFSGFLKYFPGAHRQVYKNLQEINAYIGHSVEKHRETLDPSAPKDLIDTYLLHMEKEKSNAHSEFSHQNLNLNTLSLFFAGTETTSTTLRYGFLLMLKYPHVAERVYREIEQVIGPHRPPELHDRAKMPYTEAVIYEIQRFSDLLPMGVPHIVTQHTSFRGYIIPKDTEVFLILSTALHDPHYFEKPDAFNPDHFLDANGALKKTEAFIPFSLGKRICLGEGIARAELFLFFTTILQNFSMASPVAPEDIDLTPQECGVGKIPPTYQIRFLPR
Sequence of CYP2D6 (P10635 whole entry): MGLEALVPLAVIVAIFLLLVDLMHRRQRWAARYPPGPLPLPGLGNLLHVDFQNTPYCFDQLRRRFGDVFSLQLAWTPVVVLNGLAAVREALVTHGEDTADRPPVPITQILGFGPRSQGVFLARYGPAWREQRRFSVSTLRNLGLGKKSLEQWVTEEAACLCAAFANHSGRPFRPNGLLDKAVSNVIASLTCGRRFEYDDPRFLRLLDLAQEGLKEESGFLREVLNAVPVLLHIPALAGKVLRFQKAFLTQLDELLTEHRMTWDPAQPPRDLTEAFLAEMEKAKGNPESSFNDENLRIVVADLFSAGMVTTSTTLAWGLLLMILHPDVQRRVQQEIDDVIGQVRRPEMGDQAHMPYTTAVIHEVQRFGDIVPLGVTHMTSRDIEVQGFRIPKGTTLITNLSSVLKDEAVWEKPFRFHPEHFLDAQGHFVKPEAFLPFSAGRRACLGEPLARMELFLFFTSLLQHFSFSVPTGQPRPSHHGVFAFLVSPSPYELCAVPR

In the case of Nc1nc2cc(-c3ccc4ncc(C(=O)N5CCOCC5)n4c3)ccc2o1 [serabelisib, 6-(2-Aminobenzo[d]oxazol-5-yl) imidazo[1,2-a]pyridine-3-yl morpholino methanone], the “share of metabolism by CYP3A4” value (CYP3A4) is given as 72%, the “drug accumulation between dosing cycles” value [1] is given as “No meaningful drug accumulation” and the “inhibition of BCRP” value [2] is given as “inhibitor”. For the same compound, the “tissue distribution of radiolabeled drug” value ([3]; following oral dosing) was “well distributed to all tissues”, the absorption [3, 17] was “rapid absorption” and the bioavailability [3, 17] was “high bioavailable”. For the same compound, the excretion ([3]; urine and feces) was “majority of the drug is excreted in urine and feces as the parent compound”, the “selectivity over mTOR” value [4] was over 50 fold and the “inhibition of OCT1” value [5] was “inhibitor”. For the same compound, the “inhibition of CYP2C19” value (CYP2C19) was “low potential for inhibition”, the “downstream signaling of PI3K” value [6] was “blocks downstream signaling of PI3K” and the “inhibition of CYP2C8” value (CYP2C8) was “low potential for inhibition”. For the same compound, the antiproliferative activity (a range of cell lines) was “demonstrates antiproliferative activity”, the “inhibition of CYP1A2” value (CYP1A2 [7]) was “low potential for inhibition” and the “inhibition of CYP2C9” value (CYP2C9) was “low potential for inhibition”. For the same compound, the “inhibition of CYP3A4/5” value (CYP3A4/5 [8]) was “low potential for inhibition”, the “subjects with related serious adverse events (SAEs)” value (solid tumors; 3CDW cohorts) was 7% and the MTD (solid tumors; Phase 1 study, intermittent 3CDW schedule) was 900 mg. For the same compound, the “related adverse event: decreased appetite” value (solid tumors; across all doses and regimens) was 23%, the “related adverse event: diarrhea” value (solid tumors; across all doses and regimens) was 31% and the “related adverse event: hyperglycemia” value (solid tumors; across all doses and regimens) was 37%. The “related adverse event: increased aspartate aminotransferase (AST)” value (solid tumors; across all doses and regimens) was 20%, the “related adverse event: nausea” value (solid tumors; across all doses and regimens) was 50% and the “related adverse event: vomiting” value (solid tumors; across all doses and regimens) was 38%. The “subjects with gastrointestinal dose-limiting toxicity (DLT)” value (solid tumors; dose escalated from 900 mg to 1200 mg, 3CDW regimen) was 2 of 3, the PK profile (solid tumors; human, in vivo) was “linear PK profile” and the “cases of drug-induced liver injury (DILI)” value (solid tumors; prior serabelisib clinical trials) was “no cases of DILI have been reported”. The “doses giving biologically active exposures” value (solid tumors; results from skin biopsy samples) was over 200 mg, the “selectivity over other class I PI3K isoforms” value [9] was over 50 fold and the “inhibition of CYP2B6” value (CYP2B6 [10]) was “low potential for inhibition”. For the same compound, the “induction of CYP3A4/5 activity” value (CYP3A4/5 [11]) was “does not induce”, the IC50 (PI3Kα) was 20 nM and the “inhibition of OCT2” value (OCT2) was “inhibitor”. For the same compound, the “induction of CYP2B6 activity” value (CYP2B6 [12]) was “does not induce”, the efficacy on xenograft [13] was “no efficacy” and the unique human metabolite [14] was “no unique human metabolite was identified”. The “inhibition of CYP2D6” value (CYP2D6) was “low potential for inhibition”, the tumor growth inhibition [15] was “strong tumor growth inhibition” and the “induction of CYP1A2 activity” value (CYP1A2 [16]) was “does not induce”.
